Assay results as given in patent US20040034879A1, “Mammalian sex selection using genetic modification” (priority 2000, published 2004).

Tests used:
[1] = tested on: sperm comprising an X chromosome; assay: Sex of offspring sired by male mice carrying TP1-HSV tk (transgene (a)) on the X chromosome; assay type: in vivo, mouse; conditions: after two weeks of gancyclovir administration, crossed with non-transgenic female mice
Method: The mice transformed with transgene (a), as described above, express HSV tk on the X chromosome of maturing sperm. Gancyclovir. from about 5 to about 15 mg/kg body weight, is administered to transgenic mice expressing HSV tk via injection. Upon gancyclovir administration, HSV tk forms toxic metabolites that leads to the ablation of sperm comprising an X chromosome. The TP1 regulatory region is activated post-meiotically, so that Y bearing sperm are not effected. Thus, the transformed male mouse comprises exclusively Y bearing sperm and produces male offspring, upon gancyclovir administration. An exemplary gancyclovir administration regime comprises two weeks of administration prior to mating, thereby destroying X chromosome-bearing sperm prior to mating. Male mice carrying transgene HSV tk (transgene (a)) are crossed non-transgenic female mice. Without gancyclovir administration, half of the offspring are male and half are female. The female offspring carry the transgene on the X chromosome. After two weeks of gancyclovir administration, male mice carrying transgene (a) are crossed with non-transgenic female mice. The resulting offspring are all male.

[2] = tested on: Human 293 cells; assay: Luciferase activity after transient co-transfection with pCMV-Luc; assay type: cell-based; conditions: 48 hours after co-transfection with pBS-CMV-tTA-Barnase-Barstar and pCMV-Luc; tetracycline pretreatment, 2 μg/ml
Method: Cell culture and transient transfection: Human 293 cells from embryonal kidney were maintained at 37° C., 5% CO2 in α-MEM supplemented with 10% fetal bovine serum. Transfections by calcium phosphate co-precipitation were performed according to standard protocols. Transfections were carried out in 35 mm dishes, using 1 μg of plasmid together with 0.5 μg of pCMV-Luc or pCMV-GFP. Control trasfections contained 1 μg of empty pTRE plasmid DNA together with 0.5 μg of either pCMV-Luc or pCMV-GFP. Tetracycline was used at a concentration of 2 μg/ml, and added shortly after cells were transfected, unless otherwise indicated. All data were from three replicate plates and the experiments were repeated twice.
Luciferase activity: Twenty-four hours following transfection, media was removed, cells were washed with PBS and luciferase assays were performed as described in Yin et al (1996) with Promega luciferase assay system, using 10 μl lysate and 50 μl luciferase substrate. Activity was measured with a Turner TD-20e luminometer. Protein concentrations in different lysates were determined by Bradford assays (Bio-Rad), and luciferase activity per μg protein determined.

Nc1nc(O)c2ncn(COC(CO)CO)c2n1 [gancyclovir]
sex of the resulting offspring [1]: all male

CN(C)[C@@H]1C(O)=C(C(N)=O)C(=O)[C@@]2(O)C(O)=C3C(=O)c4c(O)cccc4[C@@](C)(O)[C@H]3C[C@@H]12 [tetracycline]
luciferase activity in cells treated with tetracycline versus those not treated [2]: ~6 fold
